From US8778871B2 (Takeda Pharmaceutical Company Limited, priority 2004, dated 2014)
Non-standard residues stand in square brackets, D forms with d. Residues, ends and D or L forms follow the SMILES beside them. No end group written: not given here. *: point of attachment. Arg(Me) = CNC(=N)NCCC[C@H](N)C(=O)O; 4Pal = N[C@@H](Cc1ccncc1)C(=O)O; Cha = N[C@@H](CC1CCCCC1)C(=O)O; Orn = NCCC[C@H](N)C(=O)O; Abu = CC[C@H](N)C(=O)O; Bz = O=C(c1ccccc1)*; azaGly = NNC(=O)O

Tests used:
hOT7T175 [1] = target: T1, hOT7T175 (Homo sapiens, UniProt Q969F8); assay: Intracellular Ca ion level-increasing activity using FLIPR (180 seconds; specific activity to Metastin (1-54)); format: cell-based; conditions: hOT7T175/CHO, change in intracellular calcium ion level for 180 seconds, Tables 21-23
T1 construct: expressed in transfected cells
T1 sequence (Q969F8 whole entry L364H): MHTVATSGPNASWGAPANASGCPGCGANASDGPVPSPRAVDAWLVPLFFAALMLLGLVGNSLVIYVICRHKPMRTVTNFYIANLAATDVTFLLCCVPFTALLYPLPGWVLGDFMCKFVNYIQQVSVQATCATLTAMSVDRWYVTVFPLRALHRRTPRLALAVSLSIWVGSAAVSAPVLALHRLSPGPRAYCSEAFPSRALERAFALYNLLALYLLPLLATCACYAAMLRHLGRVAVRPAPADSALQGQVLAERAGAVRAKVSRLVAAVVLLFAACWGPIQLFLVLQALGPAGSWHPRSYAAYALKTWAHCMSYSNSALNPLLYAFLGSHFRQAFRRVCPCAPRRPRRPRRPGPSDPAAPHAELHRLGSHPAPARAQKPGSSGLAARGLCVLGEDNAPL

hOT7T175 [2] = target: T2, hOT7T175 (Homo sapiens, UniProt Q969F8, L364H); format: cell-based; conditions: hOT7T175/CHO, FLIPR, evaluation for 40 seconds after initiation of the reaction
T2 construct: expressed in transfected cells
T2 sequence (Q969F8 whole entry L364H): as above
Procedure: The intracellular Ca ion level-increasing activity was measured using FLIPR as in TEST EXAMPLE 2.

Compound | intracellular Ca ion level-increasing activity [specific activity to Metastin (1-54)] (hOT7T175 [1]) | Specific Act. (EC50/MS10 EC50) (hOT7T175 [2])
CNC(=N)NCCC[C@H](NC(=O)[C@H](CC(C)C)NC(=O)NNC(=O)[C@H](Cc1ccccc1)NC(=O)[C@@H](NC(=O)[C@H](CC(N)=O)NC(=O)[C@H](Cc1c[nH]c2ccccc12)NC(=O)[C@H](CC(N)=O)NC(=O)[C@H](N)Cc1ccc(O)cc1)[C@@H](C)O)C(=O)N[C@@H](Cc1ccccc1)C(N)=O [Compound No. 297, D-Tyr-Asn-Trp-Asn-Thr-Phe-AzaGly-Leu-Arg(Me)-Phe-NH2] (H-[dY]NWNTF[azaGly]L[Arg(Me)]F-NH2) | 1 | 5.5
CNC(=N)NCCC[C@H](NC(=O)[C@H](CC(C)C)NC(=O)NNC(=O)[C@H](Cc1ccccc1)NC(=O)[C@@H](NC(=O)[C@H](CC(N)=O)NC(=O)[C@H](Cc1c[nH]c2ccccc12)NC(=O)[C@@H](CC(N)=O)NC(=O)[C@H](N)Cc1ccc(O)cc1)[C@@H](C)O)C(=O)N[C@@H](Cc1ccccc1)C(N)=O [Compound No. 298, D-Tyr-D-Asn-Trp-Asn-Thr-Phe-AzaGly-Leu-Arg(Me)-Phe-NH2] (H-[dY][dN]WNTF[azaGly]L[Arg(Me)]F-NH2) | 5 | 1.8
CNC(=N)NCCC[C@H](NC(=O)[C@H](CC(C)C)NC(=O)NNC(=O)[C@H](Cc1ccccc1)NC(=O)[C@H](CO)NC(=O)[C@H](CC(N)=O)NC(=O)[C@H](Cc1ccncc1)NC(=O)[C@@H](CC(N)=O)NC(=O)[C@H](N)Cc1ccc(O)cc1)C(=O)N[C@@H](Cc1ccccc1)C(N)=O [Compound No. 303, D-Tyr-D-Asn-Pya(4)-Asn-Ser-Phe-AzaGly-Leu-Arg(Me)-Phe-NH2] (H-[dY][dN][4Pal]NSF[azaGly]L[Arg(Me)]F-NH2) | 5 | 6.9
CNC(=N)NCCC[C@H](NC(=O)[C@H](CC(C)C)NC(=O)CNC[C@H](Cc1ccccc1)NC(=O)[C@H](CO)NC(=O)[C@H](CC(N)=O)NC(=O)[C@H](Cc1c[nH]c2ccccc12)NC(=O)[C@H](CC(N)=O)NC(=O)[C@H](N)Cc1ccc(O)cc1)C(=O)N[C@@H](Cc1ccccc1)C(N)=O [Compound No. 308, D-Tyr-Asn-Trp-Asn-Ser-PheΨ(CH2NH)Gly-Leu-Arg(Me)-Phe-NH2] | 2 | 2.6
CC(C)C[C@H](NC(=O)CNC(=O)[C@H](Cc1ccccc1)NC(=O)[C@H](CO)NC(=O)[C@H](CC(N)=O)NC(=O)[C@H](Cc1c[nH]c2ccccc12)NC(=O)[C@H](CC(N)=O)NC(=O)[C@@H](N)Cc1ccc(O)cc1)C(=O)N[C@@H](CCCN)C(=O)N[C@@H](Cc1ccccc1)C(N)=O [Compound No. 314] (H-YNWNSFGL[Orn]F-NH2) | 1 | 4.4
CNC(=N)NCCC[C@H](NC(=O)[C@H](CC(C)C)NC(=O)NNC(=O)[C@H](Cc1ccccc1)NC(=O)[C@H](CO)NC(=O)[C@H](CC(N)=O)NC(=O)[C@H](Cc1c[nH]c2ccccc12)NC(=O)[C@H](CC(N)=O)NC(=O)[C@H](N)Cc1ccc(O)cc1)C(=O)N[C@@H](Cc1ccc(F)cc1)C(N)=O [Compound No. 318, D-Tyr-Asn-Trp-Asn-Ser-Phe-AzaGly-Leu-Arg(Me)-Phe(4F)-NH2] | 5 | 2.9
(2S)-2-(3-Indolylprpionyloxy)-3-phenylpropionyl-AzaGly-Leu-Arg(Me)-Trp-NH2 [Compound No. 379] | 2 | 3.0
Ac-NSF[azaGly]L[Arg(Me)]W-NH2 [Compound No. 510] | 3 | 3.5
Ac-Phe-AzaGly-Leu-Arg(Me)-Trp-NH2 [Compound No. 358] | 2 | 5.6
Acp-D-Tyr-D-Pya(4)-Asn-Ser-Phe-AzaGly-Leu-Arg(Me)-Phe-NH2 [Compound No. 504] | 2 | 6.9
Benzoyl-Phe-AzaGly-Leu-Arg(Me)-Trp-NH2 [Compound No. 353] | 10 | 0.8
Benzoyl-PheΨ(NHCO)Gly-Leu-Arg(Me)-Trp-NH2 [Compound No. 423] | 5 | 5.6
Bz-F[azaGly]L[Arg(Me)]F-NH2 [Compound No. 341] | 2 | 2.8
Bz-[Cha][azaGly]L[Arg(Me)]W-NH2 [Compound No. 449] | 5 | 4.2
Cyclopropanecarbonyl-Cha-AzaGly-Leu-Arg(Me)-Trp-NH2 [Compound No. 451] | 5 | 2.6
Cyclopropanecarbonyl-Phe-AzaGly-Leu-Arg(Me)-Trp-NH2 [Compound No. 447] | 5 | 1.4
D-Tyr-D-Pya(4)-Asn-Ile-Phe-AzaGly-Leu-Arg(Me)-Trp-NH2 [Compound No. 498] | 7 | 1.5
D-Tyr-D-Pya(4)-Asn-Ser-Cha-Ala-Leu-Arg(Me)-Trp-NH2 [Compound No. 497] | 2 | 1.4
D-Tyr-D-Pya(4)-Asn-Ser-Phe-AzaGly-Leu-Har-Phe-NH2 [Compound No. 488] | 1 | 5.5
D-Tyr-D-Pya(4)-Asn-Ser-Phe-AzaGly-Leu-Har-Trp-NH2 [Compound No. 481] | 5 | 2.4

Compound | intracellular Ca ion level-increasing activity [specific activity to Metastin (1-54)] (hOT7T175 [1]) | Specific Act. (EC50/MS10 EC50) (hOT7T175 [2])
D-Tyr-D-Pya(4)-Asn-Trp-Phe-AzaGly-Leu-Arg(Me)-Trp-NH2 [Compound No. 491] | 7 | 1.0
D-Tyr-D-Pya(4)-Ser-Phe-AzaGly-Leu-Arg(Me)-Trp-NH2 [Compound No. 494] | ⅓ | 8.6
D-Tyr-D-Pya(4)-Thr-Ser-Phe-AzaGly-Leu-Arg(Me)-Trp-NH2 [Compound No. 493] | 2 | 2.2
D-Tyr-Pya(4)-Ala-Ser-Phe-AzaGly-Leu-Arg(Me)-Trp-NH2 [Compound No. 502] | 10 | 1.4
D-Tyr-Pya(4)-Asn-Ser-Phe-AzaGly-Leu-Arg(Me)-Phe-NH2 [Compound No. 490] | 3 | 6.2
Dap-D-Tyr-Asn-Trp-Asn-Ser-Phe-Gly-Leu-Arg(Me)-Phe-NH2 [Compound No. 387] | 1 | 5.0
Dibenzylcarbamoyl-AzaGly-Leu-Arg(Me)-Trp-NH2 [Compound No. 393] | 1 | 5.9
Dimethylcarbamoyl-Phe-AzaGly-Leu-Arg(Me)-Trp-NH2 [Compound No. 467] | 1 | 4.0
Diphenylacetyl-AzaGly-Leu-Arg(Me)-Trp-NH2 [Compound No. 378] | ½ | 10.4
Isobutyryl-Phe-AzaGly-Leu-Arg(Me)-Trp-NH2 [Compound No. 438] | 3 | 3.0
Pyridazine-4-carbonyl-Phe-AzaGly-Leu-Arg(Me)-Trp-NH2 [Compound No. 480] | 1 | 8.3
Pyrimidine-2-carbonyl-Phe-AzaGly-Leu-Arg(Me)-Trp-NH2 [Compound No. 479] | 5 | 2.6
Pyrimidine-4-carbonyl-Phe-AzaGly-Leu-Arg(Me)-Trp-NH2 [Compound No. 475] | 3 | 4.2
Pyrrole-2-carbonyl-Phe-AzaGly-Leu-Arg(Me)-Trp-NH2 [Compound No. 455] | 5 | 4.1
Pyrrole-3-carbonyl-Phe-AzaGly-Leu-Arg(Me)-Trp-NH2 [Compound No. 474] | 5 | 3.2
[dY][dF]ASF[azaGly]L[Arg(Me)]W-NH2 [Compound No. 514] | 10 | 0.7
[dY][dW]ASF[azaGly]L[Arg(Me)]W-NH2 [Compound No. 503] | 10 | 0.4
[dY][dW]ATF[azaGly]L[Arg(Me)]W-NH2 [Compound No. 511] | 10 | 0.5
[dY][dW][Abu]SF[azaGly]L[Arg(Me)]W-NH2 [Compound No. 513] | 20 | 0.4
